The target of series [1] is T1, Trypanothione reductase (Leishmania infantum, UniProt A4HSF7). Description: Inhibition of recombinant Leishmania infantum TryR preincubated for 10 mins followed by T[S]2 substrate addition and measured after 1 hr in presence of NADPH.
Series [2] has as its target T1, Trypanothione reductase. Description: Inhibition of recombinant His/FLAG-tagged Leishmania infantum TryR dimerization assessed as dimer disruption after 1 hr by ELISA. For orientation: ELISA stands for enzyme-linked immunosorbent assay.
A short description of series [3]: Stability assessed as Tritirachium album proteinase K- mediated compound degradation by measuring half life at 100 uM by HPLC method. Conditions: parengyodontium album. Type of series: ADME.
The test system of series [4] is Leishmania infantum. Description: Antileishmanial activity against Leishmania infantum axenic amastigotes assessed as induction of cell death at 25 uM after 24 hrs by propidium iodide staining based flow cytometry. Type of series: functional. (Flow cytometry measures light scatter and fluorescence of single cells or particles in a stream.)
For series [5], the system named is Leishmania infantum. Description: Antileishmanial activity against Leishmania infantum MCAN/ES/89/IPZ229/1/89 promastigotes assessed as induction of cell death at 25 uM after 24 hrs by propidium iodide staining based flow cytometry. Type of series: functional.
Series [6] has as its system Leishmania infantum. Description: Antileishmanial activity against Leishmania infantum axenic amastigotes assessed as induction of cell death after 24 hrs by propidium iodide staining based flow cytometry. Type of series: functional.
Series [7] has as its system Leishmania infantum. Description: Antileishmanial activity against Leishmania infantum MCAN/ES/89/IPZ229/1/89 promastigotes assessed as induction of cell death after 24 hrs by propidium iodide staining based flow cytometry. Type of series: functional. Conditions: MCAN/ES/89/IPZ229/1/89, 24 h.
Series [8] in a line: Cytotoxicity against human THP1 cells assessed as induction of cell death after 24 hrs by propidium iodide staining based flow cytometry. Conditions: THP-1 cells, read-out: LC50.

Calls of active or inactive are those of the source. Bridge positions count the residues as written; N and C are the ends. Square brackets hold non-standard residues; d marks the D form. Peptide text beside a SMILES is read from it. ξ: configuration not given here. ξQ = NC(=O)CCC(N)C(=O)O; ξNle = CCCCC(N)C(=O)O; Aib = CC(C)(N)C(=O)O

T1 sequence (A4HSF7 whole entry): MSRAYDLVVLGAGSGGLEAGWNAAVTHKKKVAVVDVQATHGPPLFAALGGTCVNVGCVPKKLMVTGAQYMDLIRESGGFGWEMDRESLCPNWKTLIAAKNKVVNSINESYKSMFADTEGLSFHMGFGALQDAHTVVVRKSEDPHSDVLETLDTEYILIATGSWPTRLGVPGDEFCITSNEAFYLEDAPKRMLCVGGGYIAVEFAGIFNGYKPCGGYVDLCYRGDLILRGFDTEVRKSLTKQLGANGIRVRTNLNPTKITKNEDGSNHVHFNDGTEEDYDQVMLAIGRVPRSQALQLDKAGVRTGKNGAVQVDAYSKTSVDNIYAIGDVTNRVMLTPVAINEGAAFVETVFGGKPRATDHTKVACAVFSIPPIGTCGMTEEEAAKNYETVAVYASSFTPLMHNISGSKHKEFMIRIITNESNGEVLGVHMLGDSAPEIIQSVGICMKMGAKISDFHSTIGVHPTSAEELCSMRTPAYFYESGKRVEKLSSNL

Turning to `CCCCC(NC(=O)[C@H](CCCCN)NC(=O)C(CCCC)NC(=O)[C@H](CO)NC(=O)[C@@H](NC(=O)CNC(=O)[C@@H](NC(=O)[C@H](CO)NC(=O)[C@H](CCC(N)=O)NC(=O)[C@@H](NC(=O)[C@@H](NC(=O)[C@H](CCCCN)NC(=O)[C@@H]1CCCN1C(C)=O)[C@@H](C)CC)[C@@H](C)CC)C(C)C)[C@@H](C)CC)C(N)=O` (some centres undefined), the IC50 – broadly, the concentration that inhibits the measured activity by half – was 1.2 µM on Trypanothione reductase [1] and 13.5 µM at Trypanothione reductase [2]. Also, in series [3], the half-life – broadly, the time needed for the level to fall by half in the phase considered – at 100 µM was 23 min. Moreover, the result in the series on Leishmania infantum [4] and in the series with Leishmania infantum [5] was inactive.
Take `CC[C@H](C)[C@H](NC(=O)CNC(=O)[C@@H](NC(=O)[C@H](CO)NC(=O)[C@H](CCC(N)=O)NC(=O)[C@@H](NC(=O)[C@@H](NC(=O)[C@H](CCCCN)NC(=O)[C@@H]1CCCN1C(C)=O)[C@@H](C)CC)[C@@H](C)CC)C(C)C)C(N)=O`: the figures for the IC50 at Trypanothione reductase [1] and at Trypanothione reductase [2] were 3.7 µM and 20.8 µM, respectively. Also, the outcome with Leishmania infantum [4] and in the series with Leishmania infantum [5] was inactive.
For `CC(=O)NCC(=O)N[C@@H](CCCNC(=N)N)C(=O)N[C@@H](CCCCN)C(=O)N[C@@H](CCCCN)C(=O)N[C@@H](CCCNC(=N)N)C(=O)N[C@@H](CCCNC(=N)N)C(=O)N[C@@H](CCC(N)=O)C(=O)N[C@@H](CCCNC(=N)N)C(=O)N[C@@H](CCCNC(=N)N)C(=O)N[C@@H](CCCNC(=N)N)C(=O)N1CCC[C@H]1C(=O)N1CCC[C@H]1C(=O)N[C@@H](CCC(N)=O)C(N)=O`, the 50% lethal concentration (LC50) with Leishmania infantum [6] and with Leishmania infantum [7] was more than 25 µM in each case. Besides, the CC50 at 24 h in series [8] was more than 25 µM.
As to `CCCCC(NC(=O)[C@@H]1CCCCNC(=O)CC[C@H](NC(=O)[C@@H](NC(=O)[C@H](CO)NC(=O)[C@H](CCC(N)=O)NC(=O)[C@@H](NC(=O)[C@@H](NC(=O)[C@H](CCCCN)NC(=O)[C@@H]2CCCN2C(C)=O)[C@@H](C)CC)[C@@H](C)CC)C(C)C)C(=O)N[C@@H]([C@@H](C)CC)C(=O)N[C@@H](CO)C(=O)NC(CCCC)C(=O)N1)C(N)=O` (some centres undefined), the IC50 on Trypanothione reductase [1] came out at 27 µM; at Trypanothione reductase [2], 12.1 µM. For the same molecule, the outcome in the series on Leishmania infantum [4] and in the series with Leishmania infantum [5] was inactive.
For `CCCCC(NC(=O)[C@H](CCCCN)NC(=O)C(CCCC)NC(=O)[C@H](CO)NC(=O)[C@@H](NC(=O)CNC(=O)[C@@H](NC(=O)[C@H](CO)NC(=O)[C@H](CCC(N)=O)NC(=O)[C@@H](NC(=O)[C@@H](NC(=O)[C@H](CCCCN)NC(=O)[C@@H]1CCCN1C(=O)[C@H](CCC(N)=O)NC(=O)[C@@H]1CCCN1C(=O)[C@@H]1CCCN1C(=O)[C@H](CCCNC(=N)N)NC(=O)[C@H](CCCNC(=N)N)NC(=O)[C@H](CCCNC(=N)N)NC(=O)[C@H](CCC(N)=O)NC(=O)[C@H](CCCNC(=N)N)NC(=O)[C@H](CCCNC(=N)N)NC(=O)[C@H](CCCCN)NC(=O)[C@H](CCCCN)NC(=O)[C@H](CCCNC(=N)N)NC(=O)CNC(C)=O)[C@@H](C)CC)[C@@H](C)CC)C(C)C)[C@@H](C)CC)C(N)=O` (some centres undefined) (Ac-GRKKRRQRRRPPQPKIIQSVGIS[ξNle]K[ξNle]-NH2), the 50% lethal concentration (LC50) (commonly the concentration lethal to half of the exposed cells or organisms) was 1.5 µM in the series with Leishmania infantum [6] and 4.3 µM in the series on Leishmania infantum [7]. In addition, the CC50 at 24 h in series [8] stood at 1.2 µM.
For `CC[C@H](C)[C@H](NC(=O)CNC(=O)[C@@H]1CCCCNC(=O)CC[C@H](NC(=O)[C@H](CCCCN)NC(=O)[C@@H]2CCCN2C(C)=O)C(=O)N[C@@H]([C@@H](C)CC)C(=O)N[C@@H](CCC(N)=O)C(=O)N[C@@H](CO)C(=O)N1)C(N)=O` (Ac-PKEIQSKGI-NH2; lactam 3-7), the half-inhibitory concentration (IC50) on Trypanothione reductase [1] and on Trypanothione reductase [2] was more than 75 µM throughout. The result with Leishmania infantum [4] and with Leishmania infantum [5] was inactive.
For the molecule `CCCCC(NC(=O)[C@H](CCCCN)NC(=O)C(CCCC)NC(=O)[C@H](CO)NC(=O)[C@@H](NC(=O)CNC(=O)[C@@H]1CCCCNC(=O)CC[C@H](NC(=O)[C@H](CCCCN)NC(=O)[C@@H]2CCCN2C(C)=O)C(=O)N[C@@H]([C@@H](C)CC)C(=O)N[C@@H](CCC(N)=O)C(=O)N[C@@H](CO)C(=O)N1)[C@@H](C)CC)C(N)=O` (some centres undefined) (Ac-PKEIQSKGIS[ξNle]K[ξNle]-NH2; lactam 3-7), the values for the 50% inhibitory concentration (IC50) at Trypanothione reductase [1] and on Trypanothione reductase [2] were 0.9 µM and 9.9 µM, respectively. Further, the half-life at 100 µM in series [3] came out at 52 min. Also, the outcome with Leishmania infantum [4] and in the series on Leishmania infantum [5] was inactive.
For `CCCCC(NC(=O)[C@H](CCCCN)NC(=O)[C@@H]1CCCCNC(=O)CC[C@H](NC(=O)[C@H](CO)NC(=O)[C@H](CCC(N)=O)NC(=O)[C@@H](NC(=O)[C@@H](NC(=O)[C@H](CCCCN)NC(=O)[C@@H]2CCCN2C(C)=O)[C@@H](C)CC)[C@@H](C)CC)C(=O)NCC(=O)N[C@@H]([C@@H](C)CC)C(=O)N[C@@H](CO)C(=O)N1)C(N)=O` (some centres undefined) (Ac-PKIIQSEGISKK[ξNle]-NH2; lactam 7-11), the concentration for half-maximal inhibition (IC50) at Trypanothione reductase [1] and on Trypanothione reductase [2] was more than 75 µM in each case. The outcome with Leishmania infantum [4] and in the series with Leishmania infantum [5] was inactive.
With `CCCCC(NC(=O)[C@H](CCCCN)NC(=O)C(CCCC)NC(=O)[C@H](CO)NC(=O)[C@@H](NC(=O)CNC(=O)[C@@H]1CCCCNC(=O)CC[C@H](NC(=O)[C@H](CCCCN)NC(=O)[C@@H]2CCCN2C(=O)[C@H](CCCNC(=N)N)NC(=O)[C@H](CCCNC(=N)N)NC(=O)[C@H](CCCNC(=N)N)NC(=O)[C@H](CCCNC(=N)N)NC(=O)[C@H](CCCNC(=N)N)NC(=O)[C@H](CCCNC(=N)N)NC(=O)[C@H](CCCNC(=N)N)NC(=O)[C@H](CCCNC(=N)N)NC(=O)[C@H](CCCNC(=N)N)NC(C)=O)C(=O)N[C@@H]([C@@H](C)CC)C(=O)N[C@@H](CCC(N)=O)C(=O)N[C@@H](CO)C(=O)N1)[C@@H](C)CC)C(N)=O` (some centres undefined) (Ac-RRRRRRRRRPKEIQSKGIS[ξNle]K[ξNle]-NH2; lactam 12-16), the LC50 in the series with Leishmania infantum [6] was 2.8 µM; with Leishmania infantum [7], 3.5 µM. Besides, the CC50 at 24 h in series [8] amounted to 2.5 µM.
On to `CCCCC(NC(=O)[C@H](CCCCN)NC(=O)C(CCCC)NC(=O)[C@H](CO)NC(=O)[C@@H](NC(=O)CNC(=O)[C@@H](NC(=O)[C@H](CO)NC(=O)[C@H](CCC(N)=O)NC(=O)[C@@H](NC(=O)[C@@H](NC(=O)[C@H](CCCCN)NC(=O)[C@@H]1CCCN1C(=O)[C@H](CCCNC(=N)N)NC(=O)[C@H](CCCNC(=N)N)NC(=O)[C@H](CCCNC(=N)N)NC(=O)[C@H](CCCNC(=N)N)NC(=O)[C@H](CCCNC(=N)N)NC(=O)[C@H](CCCNC(=N)N)NC(=O)[C@H](CCCNC(=N)N)NC(=O)[C@H](CCCNC(=N)N)NC(=O)[C@H](CCCNC(=N)N)NC(C)=O)[C@@H](C)CC)[C@@H](C)CC)C(C)C)[C@@H](C)CC)C(N)=O` (some centres undefined) (Ac-RRRRRRRRRPKIIQSVGIS[ξNle]K[ξNle]-NH2), for which the figures for the median lethal concentration (LC50) in the series on Leishmania infantum [6] and with Leishmania infantum [7] were 3.5 µM and 4.6 µM, respectively. In series [8], the CC50 at 24 h worked out at 1.7 µM.
For the molecule `CCCCC(NC(=O)[C@H](CCCCN)NC(=O)C(CCCC)NC(=O)[C@H](CO)NC(=O)[C@@H](NC(=O)CNC(=O)[C@@H]1CCCCNC(=O)CC[C@H](NC(=O)[C@H](CCCCN)NC(=O)[C@@H]2CCCN2C(=O)C(C)(C)NC(=O)[C@H](CCCNC(=N)N)NC(=O)[C@H](CCCNC(=N)N)NC(=O)C(C)(C)NC(=O)[C@H](CCCNC(=N)N)NC(=O)[C@H](CCCNC(=N)N)NC(=O)C(C)(C)NC(=O)[C@H](CCCNC(=N)N)NC(=O)[C@H](CCCNC(=N)N)NC(C)=O)C(=O)N[C@@H]([C@@H](C)CC)C(=O)NC(CCC(N)=O)C(=O)N[C@@H](CO)C(=O)N1)[C@@H](C)CC)C(N)=O` (some centres undefined) (Ac-RR[Aib]RR[Aib]RR[Aib]PKEI[ξQ]SKGIS[ξNle]K[ξNle]-NH2; lactam 12-16), the 50% lethal concentration (LC50) with Leishmania infantum [6] is 10.4 µM; in the series with Leishmania infantum [7], 6.4 µM. In addition, in series [8], the CC50 at 24 h came out at 5.2 µM.
Consider `CCCCC(NC(=O)[C@H](CCCCN)NC(=O)C(CCCC)NC(=O)[C@H](CO)NC(=O)[C@@H](NC(=O)[C@@H]1CCCCNC(=O)CC[C@H](NC(=O)[C@@H](NC(=O)[C@H](CCCCN)NC(=O)[C@@H]2CCCN2C(C)=O)[C@@H](C)CC)C(=O)N[C@@H](CCC(N)=O)C(=O)NC(CO)C(=O)N[C@@H](C(C)C)C(=O)N1)[C@@H](C)CC)C(N)=O` (single isomer, unassigned), for which the IC50 amounted to 5.3 µM at Trypanothione reductase [1] and 14.4 µM on Trypanothione reductase [2]. Moreover, in series [3], the half-life at 100 µM worked out at 64 min. The outcome in the series on Leishmania infantum [4] and with Leishmania infantum [5] was inactive.
As to `CC[C@H](C)[C@H](NC(=O)[C@@H]1CCCCNC(=O)CC[C@H](NC(=O)[C@@H](NC(=O)[C@H](CCCCN)NC(=O)[C@@H]2CCCN2C(C)=O)[C@@H](C)CC)C(=O)N[C@@H](CCC(N)=O)C(=O)NC(CO)C(=O)N[C@@H](C(C)C)C(=O)N1)C(N)=O` (single isomer, unassigned), the concentration for half-maximal inhibition (IC50) at Trypanothione reductase [1] and at Trypanothione reductase [2] was more than 75 µM each time. For the same molecule, the outcome in the series on Leishmania infantum [4] and in the series on Leishmania infantum [5] was inactive.
`CCCCCCCCCCCCCCCCCCOCC(COP(=O)([O-])OCC[N+](C)(C)C)OC` (centres undefined) [EDELFOSINE]: the results for the LC50 in the series with Leishmania infantum [6] and with Leishmania infantum [7] were 0.6 µM and 9 µM, respectively. Moreover, the CC50 at 24 h in series [8] worked out at 1 µM.
Taken in the same sequence, the figures for `CCCCCCCCCCCCCCCCOP(=O)([O-])OCC[N+](C)(C)C` [MILTEFOSINE] were 2 µM, 47.6 µM and 19 µM.
Taken in the same sequence, the figures for Ac-RRRRRRRRRKMGISSMVQPKII-NH2 were more than 25 µM, more than 25 µM and more than 25 µM.

The record behind these values is ChEMBL document CHEMBL4052619, “First example of peptides targeting the dimer interface of Leishmania infantum trypanothione reductase with potent in vitro antileishmanial activity” (Eur J Med Chem, 2017).
